In patent publication US9962452B2, “Soluble complexes of drug analogs and albumin” (Zhuhai Beihai Biotech Co., Ltd., priority 2013, dated 2018):

target: Human serum albumin (HSA) (Homo sapiens, UniProt P02768); experiment: HSA-Binding Assay (equilibrium dialysis, LC-MS/MS); settings: isolated protein
Method: Equilibrium dialysis was performed in a 24-well BD Gentest Serum Binding System (BD Biosciences, Woburn, Mass.). Human serum albumin (HSA) at 0.6 mM was prepared by dissolving in phosphate buffered saline (PBS: 4.01 mL 1 M K2HPO4+0.99 mL 1 M KH2PO4+1.37 mL 5 M NaCl+43.63 mL water). After washing and soaking the 24-well BD Gentest Serum Binding System with water, 30% ethanol, and PBS, 750 μL of HSA and 250 μL of PBS were dispensed into each donor and receiver well, respectively. 3.75 μL of 1 mM test compound or wafarin (as control) was spiked into HSA in each donor well. The duplicate incubations were performed at 37° C. for 20 hrs.
After incubation, HSA and buffer samples collected from donor and receiver wells, together with calibration standard samples, were prepared in 96-well plates as shown in Table 2.
The plates were then capped, vortexed, and centrifuged at 3500 rpm for 10 minutes. The supernatant was injected into LC-MS/MS. Sample analysis was performed on an LC/MS/MS system composed of Shimadzu Prominence pumps, SIL-20ACHT autosampler, and Applied Biosystems/MDS Sciex API 3200.

| SMILES | fraction unbound at 20 h, 5 μM |
| --- | --- |
| CCCCCCCCCCCCCCCCC(NC(=O)CCC(=O)O[C@]1(CC)C(=O)OCc2c1cc1n(c2=O)Cc2c-1nc1ccc(O)cc1c2CC)C(=O)O (stereo partly drawn) [FL-003] | < 0.001 |
| CCCCCCC(NC(=O)CCC(=O)Oc1ccc2nc3c(c(CC)c2c1)Cn1c-3cc2c(c1=O)COC(=O)[C@@]2(CC)OC(=O)CCC(=O)NC(CCCCCC)C(=O)O)C(=O)O (stereo partly drawn) [FL-037] | < 0.023 |
| CCCCC(NC(=O)CCC(=O)Oc1ccc2nc3c(c(CC)c2c1)Cn1c-3cc2c(c1=O)COC(=O)[C@@]2(CC)OC(=O)CCC(=O)NC(CCCC)C(=O)O)C(=O)O (stereo partly drawn) [FL-038] | < 0.168 |
| CCCCC(NC(=O)CCC(=O)O[C@]1(CC)C(=O)OCc2c1cc1n(c2=O)Cc2c-1nc1ccc(O)cc1c2CC)C(=O)O (stereo partly drawn) [FL-040] | 0.016 |
| CCc1c2c(nc3ccc(OC(=O)CCC(=O)N[C@@H](CC(C)C)C(=O)O)cc13)-c1cc3c(c(=O)n1C2)COC(=O)[C@@]3(CC)OC(=O)CCC(=O)N[C@@H](CC(C)C)C(=O)O [FL-041] | < 0.022 |
| CCc1c2c(nc3ccc(O)cc13)-c1cc3c(c(=O)n1C2)COC(=O)[C@@]3(CC)OC(=O)CCC(=O)N[C@@H](CC(C)C)C(=O)O [FL-043] | 0.03 |
